Data: PMC8217813, “Bridging Computational Vaccinology and Vaccine Development Through Systematic Identification, Characterization, and Downselection of Conserved and Variable Circumsporozoite Protein CD4 T Cell Epitopes From Diverse Plasmodium falciparum Strains” (Frontiers in Immunology, 2021)
Peptide text beside a SMILES is read from it.

target: T1, HLA B*0702 (Homo sapiens, UniProt P01889); test: biochemical; type: binding; details: allele B0702; cell-free competition with fluorescently labeled control peptide, fluorescence polarization at 72 hours
T1 construct: Pure Protein, LLC (ran the assay)

Row | Compound | IC50 (nM)
1 | KMEKCSSVF [Cluster 370_3D7] | Non-Binder
2 | SPCSVTCGNG [Cluster 332_3D7] | Non-Binder
3 | NPNANPNANP [131_3D7 (10)] | Non-Binder
4 | KPGSADKPKD [347_CVX69 (10)] | Non-Binder
5 | NPNANPNAN [131_3D7 (9)] | Non-Binder
6 | NPNVDPNANP [Cluster 107_3D7] | Non-Binder
7 | KPGSANKPKD [Cluster 347_3D7] | Non-Binder

same assay, conditions: allele B0702; cell-free competition with fluorescently labeled control peptide, fluorescence polarization at 72 hours; read-out: IC50

Row | Compound | IC50
8 | CC[C@H](C)[C@H](NC(=O)[C@H](CCCNC(=N)N)NC(=O)[C@@H](NC(=O)[C@@H](N)CCC(N)=O)C(C)C)C(=O)N[C@@H](CCCCN)C(=O)N1CCC[C@H]1C(=O)NCC(=O)N[C@@H](CO)C(=O)N[C@@H](C)C(=O)O [Cluster 343_3D7] (H-QVRIKPGSA-OH) | 134 µM
9 | CSCC[C@H](N)C(=O)N1CCC[C@H]1C(=O)N[C@@H](CC(N)=O)C(=O)N[C@@H](CC(=O)O)C(=O)N1CCC[C@H]1C(=O)N[C@@H](CC(N)=O)C(=O)N[C@@H](CCCNC(=N)N)C(=O)N[C@@H](CC(N)=O)C(=O)N[C@H](C(=O)O)C(C)C [Cluster 285_3D7] | 511 µM
10 | C[C@H](NC(=O)[C@H](CO)NC(=O)CNC(=O)[C@@H]1CCCN1C(=O)[C@@H](N)CCCCN)C(=O)NCC(=O)N[C@@H](CCCCN)C(=O)N[C@@H](CO)C(=O)N[C@@H](CCCCN)C(=O)O [347_CVX36 (9)] (H-KPGSAGKSK-OH) | 53.1 µM

target: HLA B*4402 (Homo sapiens, UniProt P01889, A223V/A65T/A93T/A95T/D201E/D98Y/E176V/E187L/E204Q/E69K/G107R/H137Y/K202T/L105A/L119I/N104T/N87E/Q56L/Q94N/R106L/R155S/R180D/S101N/S121R/S35A/S48T/T118I/V36M/W191S/Y140D/Y91S); test: In vitro class I HLA binding competition assay (fluorescence polarization); details: allele B4402; cell-free competition with fluorescently labeled control peptide, fluorescence polarization at 72 hours
Method: The cell-free class I HLA binding assay in use at Pure Protein, LLC allows for in vitro quantification of peptide-HLA binding affinity in a competition format. In this assay, a fluorescently labeled, high binding, control peptide is loaded onto 384-well ½-area plates along with unlabeled experimental peptides. To remove endogenous peptides and render the HLA A and B molecules receptive to binding, HLA is heated at 53°C for 15 minutes and immediately added to the assay. The mixture is then allowed to stand for three days. Once the mixture has reached steady equilibrium (at 72 hours), displacement of the high binding control peptide is measured through Fluorescence Polarization. Binding of experimental peptides is expressed as the percent inhibition of the labeled control peptide (experimental fluorescence / control fluorescence, multiplied by 100). The percent inhibition values for each experimental peptide (across a range of molar concentrations) are used to calculate the concentration which inhibits 50% of the labeled control peptide’s specific binding. This value is referred to as the peptide’s IC50.

Row | Compound | IC50 (nM) | IC50
11 | NEEPSDKHI [308_3D7(9)] | Non-Binder | 
12 | CC[C@H](C)[C@H](NC(=O)[C@H](CC(=O)O)NC(=O)[C@H](CC(N)=O)NC(=O)[C@H](C)NC(=O)[C@H](Cc1ccc(O)cc1)NC(=O)[C@H](CC(=O)O)NC(=O)[C@H](CC(C)C)NC(=O)[C@H](CCC(=O)O)NC(=O)[C@@H](N)CC(=O)O)C(=O)O [Cluster 356_3D7] (H-DELDYANDI-OH) |  | 277 µM
13 | KEYLNKIQNS [Cluster 317_3D7] | Non-Binder | 
14 | TEWSPCSVT [Cluster 329_3D7] | Non-Binder | 
15 | CC[C@H](C)[C@H](NC(=O)[C@H](CCCCN)NC(=O)[C@H](CCCCN)NC(=O)[C@H](CCC(=O)O)NC(=O)[C@@H](NC(=O)[C@H](CC(=O)O)NC(=O)[C@H](CC(N)=O)NC(=O)[C@H](CCC(=O)O)NC(=O)[C@@H](N)Cc1ccc(O)cc1)[C@@H](C)CC)C(=O)O [Cluster 360_CVX298] (H-YENDIEKKI-OH) |  | 7.36 µM
16 | TEYLKKIQN [Cluster 317_ICS2] | Non-Binder | 
17 | CSCC[C@H](N)C(=O)N1CCC[C@H]1C(=O)N[C@@H](CC(N)=O)C(=O)N[C@@H](CC(=O)O)C(=O)N1CCC[C@H]1C(=O)N[C@@H](CC(N)=O)C(=O)N[C@@H](CCCNC(=N)N)C(=O)N[C@@H](CC(N)=O)C(=O)N[C@H](C(=O)O)C(C)C [Cluster 285_3D7] | Non-Binder | 
18 | CSCC[C@H](N)C(=O)N[C@@H](CCC(=O)O)C(=O)N[C@@H](CCCCN)C(=O)N[C@@H](CS)C(=O)N[C@@H](CO)C(=O)N[C@@H](CO)C(=O)N[C@H](C(=O)N[C@@H](Cc1ccccc1)C(=O)N[C@@H](CC(N)=O)C(=O)O)C(C)C [Cluster 371_3D7] (H-MEKCSSVFN-OH) |  | 143 µM
19 | DENANANSA [Cluster 294_3D7] | Non-Binder | 
20 | C[C@H](NC(=O)[C@H](CC(N)=O)NC(=O)[C@H](CC(N)=O)NC(=O)[C@H](C)NC(=O)[C@H](CC(N)=O)NC(=O)[C@H](C)NC(=O)[C@H](CC(N)=O)NC(=O)[C@H](CCC(=O)O)NC(=O)[C@@H](N)CC(=O)O)C(=O)O [Cluster 294_CVX311] (H-DENANANNA-OH) |  | 896 µM
21 | NEEPSDQHI [Cluster 308_CVX99] | Non-Binder | 
22 | NEEPSDKHIK [308_3D7 (10)] | Non-Binder | 
23 | KDELDYENDI [Cluster 355_CVX124] | Non-Binder | 
24 | CC[C@H](C)[C@H](N)C(=O)N[C@@H](CCC(=O)O)C(=O)N[C@@H](CCC(N)=O)C(=O)N[C@@H](Cc1ccc(O)cc1)C(=O)N[C@@H](CC(C)C)C(=O)N[C@@H](CCCCN)C(=O)N[C@@H](CCCCN)C(=O)N[C@H](C(=O)N[C@@H](CCC(N)=O)C(=O)N[C@@H](Cc1ccc(O)cc1)C(=O)O)[C@@H](C)CC [Cluster 316_ICS7] (H-IEQYLKKIQY-OH) |  | 157 µM

target: T2, HLA A*0301 (Homo sapiens, UniProt P04439); test: as above; details: not given
T2 construct: Pure Protein, LLC (ran the assay)

Row | Compound | IC50
25 | CC(C)C[C@H](NC(=O)[C@@H](N)CCCCN)C(=O)N[C@@H](CCCNC(=N)N)C(=O)N[C@@H](CCCCN)C(=O)N1CCC[C@H]1C(=O)N[C@@H](CCCCN)C(=O)N[C@@H](Cc1c[nH]cn1)C(=O)N[C@@H](CCCCN)C(=O)N[C@@H](CCCCN)C(=O)O [CL1-61] | 3.06 µM
26 | CC[C@H](C)[C@H](NC(=O)[C@@H](N)CCCNC(=N)N)C(=O)N[C@@H](CCCCN)C(=O)N1CCC[C@H]1C(=O)NCC(=O)N[C@@H](CO)C(=O)N[C@@H](C)C(=O)N[C@@H](CC(N)=O)C(=O)N[C@@H](CCCCN)C(=O)O [Cluster 345_3D7] (H-RIKPGSANK-OH) | 21.3 µM
27 | CC[C@H](C)[C@H](NC(=O)[C@@H](N)CCCNC(=N)N)C(=O)N[C@@H](CCCCN)C(=O)N1CCC[C@H]1C(=O)NCC(=O)N[C@@H](CO)C(=O)N[C@@H](C)C(=O)N[C@@H](CC(=O)O)C(=O)N[C@@H](CCCCN)C(=O)O [Cluster 345_CVX79] (H-RIKPGSADK-OH) | 17.7 µM
28 | CC[C@H](C)[C@H](NC(=O)[C@H](CC(=O)O)NC(=O)[C@H](CC(N)=O)NC(=O)[C@H](C)NC(=O)[C@H](Cc1ccc(O)cc1)NC(=O)[C@H](CC(=O)O)NC(=O)[C@H](CC(C)C)NC(=O)[C@@H](N)CCC(=O)O)C(=O)N[C@@H](CCC(=O)O)C(=O)N[C@@H](CCCCN)C(=O)O [Cluster 357_3D7] (H-ELDYANDIEK-OH) | 556 µM

same assay, conditions: allele A0301; cell-free competition with fluorescently labeled control peptide, fluorescence polarization at 72 hours

Row | Compound | IC50 (nM)
29 | QLDYANDIEK [Cluster 357_CVX111] | Non-Binder
30 | CC[C@H](C)[C@H](NC(=O)[C@H](CC(=O)O)NC(=O)[C@H](CC(N)=O)NC(=O)[C@H](CCC(=O)O)NC(=O)[C@H](Cc1ccc(O)cc1)NC(=O)[C@H](CC(=O)O)NC(=O)[C@H](CC(C)C)NC(=O)[C@@H](N)CCC(N)=O)C(=O)N[C@@H](CCC(=O)O)C(=O)N[C@@H](CCCCN)C(=O)O [Cluster 357_CVX89] (H-QLDYENDIEK-OH) | Non-Binder
31 | NANPNANPNK [Cluster 265_3D7] | Non-Binder
32 | IEKKICKMEK [Cluster 364_3D7] | Non-Binder
33 | LDYANDIEK [Cluster 358_3D7] | Non-Binder
34 | KHIKEYLNK [Cluster 314_3D7] | Non-Binder
35 | VTCGNGIQV [Cluster 336_3D7] | Non-Binder

target: T3, HLA A*0101 (Homo sapiens, UniProt P04439, A114D/A174V/A182V/D101N/D185E/E176A/E190D/L180R/Q94H/R68K/S129P/T187R/V100A/V91M/W191G); test: biochemical; type: binding; details: allele A0101; cell-free competition with fluorescently labeled control peptide, fluorescence polarization at 72 hours
T3 construct: Pure Protein, LLC (ran the assay)

Row | Compound | IC50 (nM)
36 | KMEKCSSVF [Cluster 370_3D7] | Non-Binder
37 | CC[C@H](C)[C@H](NC(=O)[C@H](CC(=O)O)NC(=O)[C@H](CC(N)=O)NC(=O)[C@H](C)NC(=O)[C@H](Cc1ccc(O)cc1)NC(=O)[C@H](CC(=O)O)NC(=O)[C@H](CC(C)C)NC(=O)[C@@H](N)CCC(=O)O)C(=O)N[C@@H](CCC(=O)O)C(=O)N[C@@H](CCCCN)C(=O)O [Cluster 357_3D7] (H-ELDYANDIEK-OH) | Non-Binder
38 | NEEPSDKHIK [308_3D7 (10)] | Non-Binder
39 | VTCGNGIQV [Cluster 336_3D7] | Non-Binder
40 | CC[C@H](C)[C@H](N)C(=O)N[C@@H](CCC(=O)O)C(=O)N[C@@H](CCC(N)=O)C(=O)N[C@@H](Cc1ccc(O)cc1)C(=O)N[C@@H](CC(C)C)C(=O)N[C@@H](CCCCN)C(=O)N[C@@H](CCCCN)C(=O)N[C@H](C(=O)N[C@@H](CCC(N)=O)C(=O)N[C@@H](Cc1ccc(O)cc1)C(=O)O)[C@@H](C)CC [Cluster 316_ICS7] (H-IEQYLKKIQY-OH) | Non-Binder

same assay, conditions: allele A0101; cell-free competition with fluorescently labeled control peptide, fluorescence polarization at 72 hours; read-out: IC50

Row | Compound | IC50
41 | CC[C@H](C)[C@H](NC(=O)[C@H](CC(=O)O)NC(=O)[C@H](CC(N)=O)NC(=O)[C@H](CCC(=O)O)NC(=O)[C@H](Cc1ccc(O)cc1)NC(=O)[C@H](CC(=O)O)NC(=O)[C@H](CC(C)C)NC(=O)[C@@H](N)CCC(N)=O)C(=O)N[C@@H](CCC(=O)O)C(=O)N[C@@H](CCCCN)C(=O)O [Cluster 357_CVX89] (H-QLDYENDIEK-OH) | 726 µM

target: T4, HLA A*0201 (Homo sapiens, UniProt P04439, D140Y/D185E/D98H/E176V/E277Q/G131W/G231S/I119V/I121R/I166T/I218V/L300P/L318F/N151K/N90K/P208A/P217A/Q86G/Q94H/R138H/R169H/T345S); test: biochemical; type: binding; details: not given
T4 construct: Pure Protein, LLC (ran the assay)

Row | Compound | IC50
42 | CC[C@H](C)[C@H](NC(=O)[C@H](CCCCN)NC(=O)[C@H](CC(C)C)NC(=O)[C@@H](N)Cc1ccc(O)cc1)C(=O)N[C@H](C(=O)N[C@@H](CCC(N)=O)C(=O)N[C@@H](CC(N)=O)C(=O)N[C@@H](CO)C(=O)N[C@@H](CC(C)C)C(=O)O)[C@@H](C)CC [Cluster 319_ICS5] (H-YLKIIQNSL-OH) | 4.88 µM

same assay, conditions: allele A0201; cell-free competition with fluorescently labeled control peptide, fluorescence polarization at 72 hours; read-out: IC50

Row | Compound | IC50
43 | CC[C@H](C)[C@H](NC(=O)[C@H](CCCCN)NC(=O)[C@H](CC(N)=O)NC(=O)[C@H](CC(C)C)NC(=O)[C@H](Cc1ccc(O)cc1)NC(=O)[C@H](CCC(=O)O)NC(=O)[C@H](CCCCN)NC(=O)[C@@H](NC(=O)[C@@H](N)Cc1c[nH]cn1)[C@@H](C)CC)C(=O)O [Cluster 315_3D7] (H-HIKEYLNKI-OH) | 259 µM
44 | CC(C)C[C@H](N)C(=O)N[C@@H](CO)C(=O)N[C@H](C(=O)N[C@@H](CCC(=O)O)C(=O)N[C@@H](Cc1c[nH]c2ccccc12)C(=O)N[C@@H](CO)C(=O)N1CCC[C@H]1C(=O)N[C@@H](CS)C(=O)N[C@@H](CO)C(=O)N[C@H](C(=O)O)C(C)C)[C@@H](C)O [327_3D7 (10)] (H-LSTEWSPCSV-OH) | 4.38 µM
